Measured values as given in paper PMC8123555, “Precision targeting of the plasminogen activator inhibitor‐1 mechanism increases efficacy of fibrinolytic therapy in empyema” (Physiological Reports, 2021).
Like-named read-outs stand apart in the source and are kept apart here. Where no end group is shown, it is not given here.

Tests used:
[1] = Intrapleural bleeding, pleural fluid RBC counts, empyema; assay type: in vivo, rabbit
Description: (§1) FIGURE 7 Low dose PAI‐1‐TFT induces no intrapleural bleeding. Pleural fluids from rabbits with TCN‐induced (a) or S. pneumoniae‐induced (b) pleural injury were collected at necropsy and red blood cells (RBC) were counted using a Beckman Coulter. (a) Animals with TCN‐induced pleural injury were treated (from left to right) with vehicle control (n = 6); 62.5 µg/kg of scuPA alone (n = 6); and with 2.0 mg/kg DSP (n = 6); 72.5 µg/kg of sctPA alone (n = 5), and with 2.0 mg/kg DSP (n = 6). (b) Animals with infectious pleural injury were treated (from left to right) with vehicle control (n = 6); 0.25 mg/kg of sctPA alone (n = 5), and with 8.0 mg/kg DSP (n = 6), 0.5 mg/kg of sctPA alone (n = 6), and with 8.0 mg/kg DSP (n = 6), 0.5 mg/kg of scuPA alone (n = 9), and with 8.0 mg/kg DSP (n = 3). […] Data are presented as box and whisker plots (all points shown)

[2] = in vivo; details: rabbit
Description: (§2) All animal procedures were approved by the Institutional Animal Care and Use Committee at The University of Texas Health Science Center at Tyler (IACUC protocols 499,616,617). Studies used female, pathogen‐free New Zealand white rabbits (3.0–3.6 kg; average age 18 weeks) from Charles River Laboratories (Wilmington, MA). These studies required a total of 107 rabbits, 43 for the model of TCN‐induced pleural injury and 64 for the model of empyema. […] Briefly, a 3 ml mixture of TCN in ascorbic acid (20 mg/ml TCN (T3258, Sigma‐Aldrich), 2.5 mg/ml ascorbic acid (A7506, Sigma‐Aldrich) and lidocaine (1 mg/ml, UTHCT Compounding Pharmacy), was delivered by intrapleural injection. A model of acute empyema in rabbits was induced as described previously (Komissarov et al., 2016). Briefly, 1–5 × 10^8 cfu of S. pneumoniae (D39 strain, National Collection of Type Cultures, Salisbury UK) in 3 ml of 0.5% brain‐heart infusion agar (BD 238400, BD Diagnostic Systems) was delivered by intrapleural injection. Clavomox (10 mg/kg, subcutaneous, daily for 1–3 days as clinically indicated by Attending Veterinarian) (10000485, Zoetis) was started at 28–30 h post‐infection. Accumulation of pleural fluid and fibrin deposition was monitored using ultrasonography; detailed in the ultrasonography subsection. After 48 or 72 h for TCN‐induced pleural injury and empyema, respectively, intrapleural therapeutics were administered depending on treatment group via an 18‐gauge catheter, which was flushed with 0.5 ml PBS. In all experiments, samples of pleural fluids (0.5 ml) from each rabbit were collected prior to and at 10, 20, and 40 min after PAI‐1‐TFT and processed for later analysis (Florova et al., 2015; Karandashova et al., 2013; Komissarov et al., 2013, 2016). Anesthesia, postoperative pain medication, and animal care were provided as reported previously (Florova et al., 2015; Karandashova et al., 2013; Komissarov et al., 2013, 2016). with details provided in the supplement. Animals were monitored carefully for signs of distress, pain, and worsening clinical status. Euthanasia was accomplished using intravenous injection of 1 ml of commercial euthanasia solution (sodium pentobarbital 390 mg/ml and phenytoin 50 mg/ml) followed by exsanguination.
The residual DSP in pleural fluid samples was determined using LC MS/MS. Briefly, collected samples were extracted using acetonitrile, cleaned with Microcon centrifugal filters (MRCPRT010, MilliporeSigma) and injected via autosampler onto a Pinnacle DB C8 Column (9413332, Restek) reverse‐phase column operated at a flow rate of 200 μl/min. A gradient elution method using solvent A (99% H2O, 1% acetonitrile, 0.05% TFA) for 5 min, a gradient to 100% solvent B (1% H2O, 99% acetonitrile, 0.05% TFA) over 25 min, and 100% solvent B for 2 min was employed. […]

[3] = rabbit, in vivo
Description: as §1

[4] = rabbit, in vivo; remark: listed apart in the source
Description: as §2, with “Anesthesia, postoperative pain medication, and animal care were provided as reported previously (Florova et al., 2015; Karandashova et al., 2013; Komissarov et al., 2013, 2016). with details provided in the supplement.” left out, “Euthanasia was accomplished using intravenous injection of 1 ml of commercial euthanasia solution (sodium pentobarbital 390 mg/ml and phenytoin 50 mg/ml) followed by exsanguination.” left out
The residual DSP in pleural fluid samples was determined using LC MS/MS. […]

[5] = system: PAI‐1; details: alanine mutations of positively charged residues in the 37-loop; ref Benedict et al., 1995; Florova et al., 2018; Keyt et al., 1994; cited from earlier work
From the text: Plasminogen Activator Inhibitor‐1 (PAI‐1) is a mechanism‐based inhibitor of tissue type (tPA) and urokinase (uPA) plasminogen activators (PAs) (Carrell et al., 1991; Chaillan‐Huntington et al., 1997; Mourik et al., 1984) used for fibrinolytic therapy. Levels of PAI‐1 increase by up to three orders of magnitude in empyema (pleural sepsis), and organizing pleural injury (Aleman et al., 2003; Chung et al., 2005; Philip‐Joet et al., 1995), limiting endogenous and exogenous plasminogen activating activity that could help prevent or treat uncontrolled fibrin deposition induced by inflammation. Previ ...

Substance | Bleeding accompanying PAI-1-TFT ([1]; DSP with plasminogen activator, empyema) | Pleural fluid RBC counts ([1]; any dose of DSP alone or in combination with plasminogen activator, pleural fluid at necropsy, Beckman Coulter) | level at 40 min ([2]; female, New Zealand white, 8 mg/kg) [µg/mL] | Apparent first order rate constant of DSP clearance (kclr), slower phase [2] [min⁻¹] | DSP in pleural fluid at 24 h [2] | Presence of DSP in pleural fluid after treatment [2] | Bleeding accompanying PAI-1-TFT [3] | Apparent first order rate constant of DSP clearance (kclr), slower phase [4] [min⁻¹] | DSP in pleural fluid at 24 h [4] | Presence of DSP in pleural fluid after treatment [4] | Rate of reaction with PAI-1 relative to the WT enzymes [5]
EEIIMD [DSP, EEIIMD] | no apparent local or systemic bleeding | no statistical difference | > 300 | 0.03 to 0.07 | No DSP was detected | over 40 min | no apparent local or systemic bleeding | 0.03 to 0.07 | No DSP was detected | over 40 min | 
tenecteplase |  |  |  |  |  |  |  |  |  |  | almost two orders of magnitude slower
